Source: PubChem BioAssay (NCI)
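GI50: concentration for 50% inhibition of growth. TGI denotes the concentration required for complete inhibition of growth.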

What was measured:
Test in all cases: NCI tumour cell line growth inhibition, 384-well format; in the data active means GI50 below about 0.43 µM; inactive means the rest
PC-3 prostate = system: PC-3 prostate
NCI/ADR-RES ovarian = system: NCI/ADR-RES ovarian
MDA-MB-468 breast = system: MDA-MB-468 breast
RXF 393 renal = system: RXF 393 renal
SNB-19 CNS = system: SNB-19 CNS
RPMI-8226 leukemia = system: RPMI-8226 leukemia
SF-539 CNS = system: SF-539 CNS
SK-OV-3 ovarian = system: SK-OV-3 ovarian
UACC-257 melanoma = system: UACC-257 melanoma
SK-MEL-5 melanoma = system: SK-MEL-5 melanoma
HT29 colon = system: HT29 colon
A498 renal = system: A498 renal
IGROV1 ovarian = system: IGROV1 ovarian
NCI-H460 NSCLC = system: NCI-H460 NSCLC
U251 glioblastoma = system: U251 glioblastoma
MCF7 breast = system: MCF7 breast
SK-MEL-2 melanoma = system: SK-MEL-2 melanoma
786-0 renal = system: 786-0 renal
SR leukemia = system: SR leukemia
M14 melanoma = system: M14 melanoma
MALME-3M melanoma = system: MALME-3M melanoma
HS 578T breast = system: HS 578T breast
MDA-MB-231 breast = system: MDA-MB-231 breast
NCI-H226 lung = system: NCI-H226 lung
SF-295 CNS = system: SF-295 CNS
OVCAR-8 ovarian = system: OVCAR-8 ovarian
MDA-MB-435 melanoma = system: MDA-MB-435 melanoma
NCI-H322M lung = system: NCI-H322M lung
CAKI-1 renal = system: CAKI-1 renal
KM12 colon = system: KM12 colon
ACHN renal = system: ACHN renal
UACC-62 melanoma = system: UACC-62 melanoma
HCC-2998 colon = system: HCC-2998 colon
EKVX NSCLC = system: EKVX NSCLC
SNB-75 CNS = system: SNB-75 CNS
CCRF-CEM leukemia = system: CCRF-CEM leukemia
BT-549 breast = system: BT-549 breast
TK-10 renal = system: TK-10 renal
DU-145 prostate = system: DU-145 prostate
NCI-H23 lung = system: NCI-H23 lung
SN12C renal = system: SN12C renal
SK-MEL-28 melanoma = system: SK-MEL-28 melanoma
OVCAR-5 ovarian = system: OVCAR-5 ovarian
T-47D breast = system: T-47D breast
HOP-62 NSCLC = system: HOP-62 NSCLC
HOP-92 NSCLC = system: HOP-92 NSCLC
A549 NSCLC = system: A549 NSCLC
HCT-15 colon = system: HCT-15 colon
MOLT-4 leukemia = system: MOLT-4 leukemia
COLO 205 colon = system: COLO 205 colon
SF-268 CNS = system: SF-268 CNS
HL-60(TB) leukemia = system: HL-60(TB) leukemia
OVCAR-4 ovarian = system: OVCAR-4 ovarian
NCI-H522 lung = system: NCI-H522 lung
SW-620 colon = system: SW-620 colon
OVCAR-3 ovarian = system: OVCAR-3 ovarian

CNC(=O)c1ccc2cc(C3(O)CCn4cncc43)ccc2c1 (configuration not stated)
inactive: GI50 (PC-3 prostate) > 100 µM | GI50 (NCI/ADR-RES ovarian) > 100 µM | GI50 (MDA-MB-468 breast) > 100 µM | GI50 (RXF 393 renal) > 100 µM | GI50 (SNB-19 CNS) > 100 µM | GI50 (RPMI-8226 leukemia) > 100 µM | GI50 (SF-539 CNS) > 100 µM | GI50 (SK-OV-3 ovarian) > 100 µM | GI50 (UACC-257 melanoma) > 100 µM | GI50 (SK-MEL-5 melanoma) > 100 µM | GI50 (HT29 colon) > 100 µM | GI50 (A498 renal) > 100 µM | GI50 (IGROV1 ovarian) > 100 µM | GI50 (NCI-H460 NSCLC) > 100 µM | GI50 (U251 glioblastoma) > 100 µM | GI50 (MCF7 breast) > 100 µM | GI50 (SK-MEL-2 melanoma) > 100 µM | GI50 (786-0 renal) > 100 µM | GI50 (SR leukemia) > 100 µM | GI50 (M14 melanoma) > 100 µM | GI50 (MALME-3M melanoma) > 100 µM | GI50 (HS 578T breast) > 100 µM | GI50 (MDA-MB-231 breast) > 100 µM | GI50 (NCI-H226 lung) > 100 µM | GI50 (SF-295 CNS) > 100 µM | GI50 (OVCAR-8 ovarian) > 100 µM | GI50 (MDA-MB-435 melanoma) > 100 µM | GI50 (NCI-H322M lung) > 100 µM | GI50 (CAKI-1 renal) > 100 µM | GI50 (KM12 colon) > 100 µM | GI50 (ACHN renal) > 100 µM | GI50 (UACC-62 melanoma) > 100 µM | GI50 (HCC-2998 colon) > 100 µM | GI50 (EKVX NSCLC) > 100 µM | GI50 (SNB-75 CNS) > 100 µM | GI50 (CCRF-CEM leukemia) > 100 µM | GI50 (BT-549 breast) > 100 µM | GI50 (TK-10 renal) > 100 µM | GI50 (DU-145 prostate) > 100 µM | GI50 (NCI-H23 lung) > 100 µM | GI50 (SN12C renal) > 100 µM | GI50 (SK-MEL-28 melanoma) > 100 µM | GI50 (OVCAR-5 ovarian) > 100 µM | GI50 (T-47D breast) > 100 µM | GI50 (HOP-62 NSCLC) > 100 µM | GI50 (HOP-92 NSCLC) > 100 µM | GI50 (A549 NSCLC) > 100 µM | GI50 (HCT-15 colon) > 100 µM | GI50 (MOLT-4 leukemia) > 100 µM | GI50 (COLO 205 colon) > 100 µM | GI50 (SF-268 CNS) > 100 µM | GI50 (HL-60(TB) leukemia) > 100 µM | GI50 (OVCAR-4 ovarian) > 100 µM | GI50 (NCI-H522 lung) > 100 µM | GI50 (SW-620 colon) > 100 µM | GI50 (OVCAR-3 ovarian) > 100 µM
> 100 µM: TGI (PC-3 prostate) | TGI (NCI/ADR-RES ovarian) | TGI (MDA-MB-468 breast) | TGI (RXF 393 renal) | TGI (SNB-19 CNS) | TGI (RPMI-8226 leukemia) | TGI (SF-539 CNS) | TGI (SK-OV-3 ovarian) | TGI (UACC-257 melanoma) | TGI (SK-MEL-5 melanoma) | TGI (HT29 colon) | TGI (A498 renal) | TGI (IGROV1 ovarian) | TGI (NCI-H460 NSCLC) | TGI (U251 glioblastoma) | TGI (MCF7 breast) | TGI (SK-MEL-2 melanoma) | TGI (786-0 renal) | TGI (SR leukemia) | TGI (M14 melanoma) | TGI (MALME-3M melanoma) | TGI (HS 578T breast) | TGI (MDA-MB-231 breast) | TGI (NCI-H226 lung) | TGI (SF-295 CNS) | TGI (OVCAR-8 ovarian) | TGI (MDA-MB-435 melanoma) | TGI (NCI-H322M lung) | TGI (CAKI-1 renal) | TGI (KM12 colon) | TGI (ACHN renal) | TGI (UACC-62 melanoma) | TGI (HCC-2998 colon) | TGI (EKVX NSCLC) | TGI (SNB-75 CNS) | TGI (CCRF-CEM leukemia) | TGI (BT-549 breast) | TGI (TK-10 renal) | TGI (DU-145 prostate) | TGI (NCI-H23 lung) | TGI (SN12C renal) | TGI (SK-MEL-28 melanoma) | TGI (OVCAR-5 ovarian) | TGI (T-47D breast) | TGI (HOP-62 NSCLC) | TGI (HOP-92 NSCLC) | TGI (A549 NSCLC) | TGI (HCT-15 colon) | TGI (MOLT-4 leukemia) | TGI (COLO 205 colon) | TGI (SF-268 CNS) | TGI (HL-60(TB) leukemia) | TGI (OVCAR-4 ovarian) | TGI (NCI-H522 lung) | TGI (SW-620 colon) | TGI (OVCAR-3 ovarian)
